Measurements published in patent publication US20230022032A1, “uPAR-TARGETED PHOTOTHERMAL OPTICAL PROBES FOR PHOTOTHERMAL THERAPY” (RIGSHOSPITALET, priority 2019, published 2023).
“Also recorded” adds a separate entry of the source.

Key:
[1] = system: subcutaneous U-87 MG.luc2 tumors; assay: In vivo photothermal therapy (PTT) in subcutaneous mouse model of human glioblastoma; set-up: species or system mice; conditions: for median survival: endpoint tumor 1000 mm^3; for highest temperature reached on tumor surface during PTT: 46 nmol injected four hours before PTT, 5 minutes NIR light at 2 W/cm^2
Protocol: The animal experiments were approved by the Danish Animal Welfare Council, Ministry of Justice. For the in vivo studies, U-87 MG.luc2 cells were cultured in Dulbecco's modified eagle medium supplemented with 10% fetal bovine serum and 1% penicillin-streptomycin (Thermo Fisher Scientific) at 37° C. and in 5% CO2. When cells reached 70% confluence, they were harvested and 2-3×10^6 cells in 100 μl of PBS were inoculated into the left flank of NMRI nude female mice (Janvier Labs, France). Animals were left to grow tumors until they reached 300 mm^3 (day −1). From then on, tumors were measured every other day with the use of a caliper, and tumor volume calculated through the formula: (length×width^2)*0.5. When tumors reached 1,000 mm^3, animals were euthanized.
When tumors reached 300 mm^3, mice were divided into 5 groups: ICG-Glu-Glu-AE105 group (mice injected with 46 nmol ICG-Glu-Glu-AE105 four hours before PTT, n=6); ICG group (mice injected with 46 nmol of unconjugated ICG four hours before PTT, n=4); Saline group (mice injected with saline four hours before PTT, n=4); sham group (mice injected with ICG-Glu-Glu-AE105 and no PTT, n=5) and a control group (no injection, no PTT, n=4). Animals were given analgesia (buprenorphin, 0.3 mg/ml) right before the laser treatment and every 6 to 8 hours until deemed necessary. For PTT, animals were anesthetized with sevoflurane as previously described and placed under the laser beam for five minutes at 2 W/cm^2. The tumors were swabbed with glycerol, an index-matching agent, prior to the laser treatment to facilitate light penetration (Deng et al. 2011, Vargas et al., 1999, Simon et al., 2019). The temperatures reached on the tumor surface were detected with a thermal camera, as described for the in vitro experiments.
Animals were bioluminescence-scanned a day before PTT, on PTT day and afterwards every other day until endpoints were reached, using IVIS Lumina XR and acquisition software Living Image (Caliper life Sciences, Hopkinton, Calif., USA). For these bioluminescence scans, luciferin was injected intraperitoneally ([…]) ten minutes before the scan. Animals were then anesthetized as described in the previous sections and placed in the prone position. The excitation filter was set to 710 nm and the emission filter was set on ICG.
The fluorescence scans were performed to detect ICG signal before and after PTT using the Fluobeam®800 NIR-camera as described for the accumulation study.
The Kaplan-Meier method was used to create the survival curves, and they were compared through the log-rank test. The maximum temperatures on tumor surface were compared using one-way ANOVA with Tukey's multiple comparisons test. The fluorescence emitted by ICG measured by the Fluobeam before and after PTT was compared using two-way ANOVA with Sidak's multiple comparisons test. The data was plotted in Prism7 and shown as mean±SEM.
After determining ideal dose and treatment schedule, different groups of mice were set up in order to test the ability of ICG-Glu-Glu-AE105 as a photothermal agent, capable of specifically ablating tumors in vivo. For this, mice were injected subcutaneously with U-87 MG.luc2 cells, a type of glioblastoma cells expressing luciferase, which allows for bioluminescence imaging when luciferin is injected. The bioluminescence signal, detected when the reactive luciferin was injected and oxidized by the enzyme luciferase, serves as a way to determine treatment success and follow tumor growth. […] The timeline for the experiments can be seen on FIG. 3. On baseline (day −1), mice underwent a pre-treatment bioluminescence scan. Following, on treatment day (day 0), mice were injected with either ICG-Glu-Glu-AE105, ICG alone, saline or not injected as it was the case for the control group. Approximately four hours after injection, all groups but sham and control were irradiated for 5 minutes with NIR light at 2 W/cm2, and the temperatures on tumor surface were measured with a FLIR camera. […]

[2] = In vitro heating of solutions under NIR laser irradiation (FLIR thermal camera); assay type: physicochemical; conditions: NIR laser 2 W/cm^2; for maximum temperature in solution / temperature reached in solution: five minutes irradiation; for temperature reached in solution: 228 nmol; for maximum temperature of solution: irradiated for ten minutes
Protocol: The ability of ICG to generate high temperatures when irradiated with NIR light was measured in vitro. Different concentrations (228, 46, 23 and 12 nmol) of unconjugated ICG and ICG-Glu-Glu-AE105 in solution (0.2 g/ml (2-hydroxypropyl)-β-cyclodextrin in water and DMSO) were placed in a plastic cuvette under the laser beam. The laser was turned on for five minutes at 2 W/cm2 and the temperature measured with a thermal camera (FLIR T-440 camera), taking images every 30 seconds. The images were analyzed using the FLIR tools software.
In order to test the ability of ICG-Glu-Glu-AE105 to heat under NIR light, different concentrations of the compound in solution were placed in a plastic cuvette under a laser, at an intensity of 2 W/cm^2. The samples were then irradiated for ten minutes and the temperatures detected with a FLIR camera. For the highest concentration tested, 0.5 mg/ml, temperature increased fast in the first minutes and slower and in a more steady way after that, reaching a maximum temperature of 70.8±3° C. after ten minutes of irradiation. In contrast, lower concentrations reached their maximum peak fast; at five minutes for 0.1 mg/ml (62.7±1.6° C.), and around two to three minutes for 0.05 and 0.025 mg/ml (51.4±0.9 and 40.7±0.4° C. respectively). From that point, temperatures started to decrease most likely due to the irreversible degradation of ICG, which impedes heat generation (Wang et al., 2013).
Different concentrations of ICG in solution were irradiated as it was done for the conjugated dye. […] As expected, the maximum temperature was very similar to the one reached by 0.5 mg/ml of ICG-Glu-Glu-AE105, because a concentration of 0.5 mg/ml of ICG-Glu-Glu-AE105 corresponds to approximately 0.18 mg/ml of ICG alone. […] 0.05 mg/ml of ICG reached a maximum of 68.8±0.7° C. after seven minutes of irradiation, meanwhile 0.025 mg/ml of ICG peaked at three minutes at 50±0.2° C.
5 minutes irradiation trials were also made with reference to testing the ability of ICG-Glu-Glu-AE105 to heat under NIR light. See the set up with the compound in solution placed in a plastic cuvette under a laser beam (intensity 2 W/cm^2) in FIG. 1a. In this case the samples were irradiated for five minutes and the maximum temperatures were recorded with a FLIR camera. (FIG. 1b).
However, it was observed that the heat was mainly localized at the top of the sample and not evenly distributed throughout the solution. […] An important detail observed was the temperature decrease after reaching a certain peak, most likely due to the irreversible degradation of ICG, which impedes heat generation (Wang, Y.-G., Kim, H., Mun, S., Kim, D. & Choi, Y).

[3] = system: U-87 MG.luc2 tumor tissue; assay: Tumor response ex vivo: H&E staining and uPAR immunohistochemistry of tumors resected 2 days after PTT; assay type: in vivo, mice; conditions: n=2 per group
Protocol: Tumors were resected from n=2 mice per group two days after PTT. Tumors were fixated in formaldehyde overnight, and afterwards conserved in ethanol for their later embedding in paraffin. To perform the histology experiments, tumors were resected in 4 μm slices in a microtome (Thermo Scientific Microm HM355S). The tissue slides were left to dry for at least 1.5 hours, and then heated first at 40 and after at 60° C. Following, slides were submerged in HistoClear to achieve deparaffinization and rehydrated through a series of EtOH to water. For hematoxylin and eosin staining, the tissue slides were stained with hematoxylin for 5 minutes, rinsed and stained with eosin for 3 minutes.
For immunohistochemistry, the rehydrated tissue slides underwent heat-induced epitope retrieval (HIER) by covering the tissue slides with 250 mL citrate buffer (pH=6), and steaming them at 100° C. for 15 minutes. […]
Finally, tumors from mice receiving the different treatments (n=2) were resected at day 2 (after PTT) and H&E stained to confirm changes in tumor morphology due to treatment ex vivo (FIG. 7). […] Finally, macrophages were detected through CD68 staining to observe co-localization with uPAR signal, which could be noted, again, for all viable tumor regions.

[4] = 46 nmol four hours before PTT (5 minutes, 2 W/cm^2)

Structure (SMILES) | median survival [1, 4] | highest temperature reached on tumor surface during PTT [1] | maximum temperature in solution ([2]; 12 nmol) | maximum temperature in solution ([2]; 23 nmol) | temperature reached in solution [2] | maximum temperature of solution ([2]; 0.025 mg/ml in solution) | maximum temperature of solution ([2]; 0.05 mg/ml in solution) | maximum temperature of solution ([2]; 0.1 mg/ml in solution) | tumor growth after PTT ([1]; 46 nmol four hours before PTT, caliper measurement, compared to all the other groups) | complete tumor disappearance after PTT ([1]; n=6, followed until 60 days after PTT) | bioluminescence signal after PTT ([1]; ratio FLUX (day X/day -1), versus all the other groups) | median survival ([1]; sham group: injected, no laser treatment) | maximum temperature of solution ([2]; 0.5 mg/ml in solution) | H&E staining of tumor tissue [3] | uPAR signal in tumor tissue (immunological staining) [3]
CC1(C)C(/C=C/C=C/C=C/C=C2\N(CCCCS(=O)(=O)O)c3ccc4ccccc4c3C2(C)C)=[N+](CCCCS(=O)(=O)[O-])c2ccc3ccccc3c21 [ICG, indocyanine green] | 10 days | around 45 °C | around 38 °C | below 50 °C | around 80 °C | 50±0.2 °C | 68.8±0.7 °C | 71.4±1.1 °C |  |  |  |  |  |  | 
CC(C)C[C@H](NC(=O)[C@H](Cc1ccc(O)cc1)NC(=O)C(CCCNC(=N)N)NC(=O)C(CO)NC(=O)C(Cc1ccccc1)NC(=O)[C@H](CC1CCCCC1)NC(=O)C(CC(=O)O)NC(=O)C(CCC(=O)O)NC(=O)C(CCC(=O)O)NC(=O)CCCCCN1\C(=C/C=C/C=C/C=C/C2=[N+](CCCCS(=O)(=O)[O-])c3ccc4ccccc4c3C2(C)C)C(C)(C)c2c1ccc1ccccc21)C(=O)N[C@@H](Cc1c[nH]c2ccccc12)C(=O)N[C@@H](CO)C(=O)O (stereo partly drawn) [ICG-Glu-Glu-AE105] | 13.5 days | around 52 °C |  |  | around 80 °C | 40.7±0.4 °C | 51.4±0.9 °C | 62.7±1.6 °C | delay in tumor growth | one mouse even experienced complete tumor disappearance | reduced signal | 8 days | 70.8±3 °C | high degree of cell death; also recorded: tissue disruption and hemorrhage | decrease in uPAR signal
